Measurements taken from ChEMBL document CHEMBL2439976, “Discovery of NMS-E973 as novel, selective and potent inhibitor of heat shock protein 90 (Hsp90)” (Bioorg Med Chem, 2013).

Tests used:
in vivo [1] = settings: Balb nu/nu, mouse, plasma, iv, 10 mg/kg
in vivo [2] = settings: Balb nu/nu, mouse, iv, 10 mg/kg
in vivo [3] = settings: Balb nu/nu, mouse, iv, 10 mg/kg; remark: listed apart in the source
in vivo [4] = settings: Balb nu/nu, mouse, iv, 10 mg/kg; remark: listed apart in the source

Row | Compound | AUC(0-inf) (in vivo [1]) | Vd (in vivo [2]) | half-life (in vivo [3]) | clearance (in vivo [4])
1 | CN(C)c1ccc(Oc2cc(O)cc(O)c2-c2cc(C(=O)NC3CCN(C4CCC5(CC4)OCCO5)CC3)no2)cc1 | 7.6 µM·h | 4.94 L/kg | 5.46 h | 29.4 mL/min/kg
2 | CN1CCC(NC(=O)c2cc(-c3c(O)cc(O)cc3Oc3ccc(N(C)C)cc3)on2)CC1 | 5.92 µM·h | 19.7 L/kg | 5.55 h | 62.3 mL/min/kg
3 | CC(C)Nc1ccc(Oc2cc(O)cc(O)c2-c2cc(C(=O)NC3CCN(C)CC3)no2)cc1 | 4.8 µM·h | 18.4 L/kg | 5.44 h | 64.8 mL/min/kg
